Assay results published in PubChem BioAssay (NCI).
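48-hour exposure; five concentrations; linearly interpolated endpoints. Abbreviation: GI50, concentration required for 50% inhibition of growth. TGI is the concentration that stops growth completely.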

How the values were obtained:
Test in all cases: NCI-60 cell line screen, 48 h
MDA-MB-231 breast = system: MDA-MB-231 breast
U251 CNS = system: U251 CNS
EKVX NSCLC = system: EKVX NSCLC
SK-MEL-2 melanoma = system: SK-MEL-2 melanoma
A549 NSCLC = system: A549 NSCLC
UO-31 renal = system: UO-31 renal
SK-MEL-28 melanoma = system: SK-MEL-28 melanoma
ACHN renal = system: ACHN renal
SR leukemia = system: SR leukemia
KM12 colon = system: KM12 colon
HT29 colon = system: HT29 colon
HCC-2998 colon = system: HCC-2998 colon
HCT-116 colon = system: HCT-116 colon
MCF7 breast = system: MCF7 breast
NCI-H226 lung = system: NCI-H226 lung
SF-268 CNS = system: SF-268 CNS
OVCAR-3 ovarian = system: OVCAR-3 ovarian
SF-295 CNS = system: SF-295 CNS
SN12C renal = system: SN12C renal
SNB-19 CNS = system: SNB-19 CNS
SK-MEL-5 melanoma = system: SK-MEL-5 melanoma
IGROV1 ovarian = system: IGROV1 ovarian
NCI/ADR-RES ovarian = system: NCI/ADR-RES ovarian
SK-OV-3 ovarian = system: SK-OV-3 ovarian
NCI-H460 lung = system: NCI-H460 lung
SW-620 colon = system: SW-620 colon
786-0 renal = system: 786-0 renal
LOX IMVI melanoma = system: LOX IMVI melanoma

CN1C[C@@H](c2ccc(Cl)cc2)[C@]2(NC(=S)N(c3ccc(F)c(Cl)c3)C2=O)[C@@]12C(=O)NC1C=CC(Cl)=C[C@H]12 (stereo partly specified)
GI50 (MDA-MB-231 breast): 1.88 µM
TGI (MDA-MB-231 breast): 4.27 µM
GI50 (U251 CNS): 2.01 µM
TGI (U251 CNS): 4.71 µM
GI50 (EKVX NSCLC): 2.72 µM
TGI (EKVX NSCLC): 20.3 µM
GI50 (SK-MEL-2 melanoma): 3.08 µM
TGI (SK-MEL-2 melanoma): 10.3 µM
GI50 (A549 NSCLC): 3.34 µM
TGI (A549 NSCLC): 12.3 µM
GI50 (UO-31 renal): 1.6 µM
TGI (UO-31 renal): 3.86 µM
GI50 (SK-MEL-28 melanoma): 3.61 µM
TGI (SK-MEL-28 melanoma): 12.9 µM
GI50 (ACHN renal): 3.07 µM
TGI (ACHN renal): 10.6 µM
GI50 (SR leukemia): 2.79 µM
TGI (SR leukemia): 7.18 µM
GI50 (KM12 colon): 2 µM
TGI (KM12 colon): 4.92 µM
GI50 (HT29 colon): 2.1 µM
TGI (HT29 colon): 4.24 µM
GI50 (HCC-2998 colon): 3.85 µM
TGI (HCC-2998 colon): 13.8 µM
GI50 (HCT-116 colon): 3.12 µM
TGI (HCT-116 colon): 10.2 µM
GI50 (MCF7 breast): 2.82 µM
TGI (MCF7 breast): 12 µM
GI50 (NCI-H226 lung): 1.82 µM
TGI (NCI-H226 lung): 4.72 µM
GI50 (SF-268 CNS): 2.89 µM
TGI (SF-268 CNS): 11.2 µM
GI50 (OVCAR-3 ovarian): 2.12 µM
TGI (OVCAR-3 ovarian): 4.75 µM
GI50 (SF-295 CNS): 1.89 µM
TGI (SF-295 CNS): 4.46 µM
GI50 (SN12C renal): 1.86 µM
TGI (SN12C renal): 3.74 µM
GI50 (SNB-19 CNS): 3.17 µM
TGI (SNB-19 CNS): 14.4 µM
GI50 (SK-MEL-5 melanoma): 1.97 µM
TGI (SK-MEL-5 melanoma): 4.21 µM
GI50 (IGROV1 ovarian): 3.12 µM
TGI (IGROV1 ovarian): 14.6 µM
GI50 (NCI/ADR-RES ovarian): 2.54 µM
TGI (NCI/ADR-RES ovarian): 8.97 µM
GI50 (SK-OV-3 ovarian): 3.09 µM
TGI (SK-OV-3 ovarian): 10.4 µM
GI50 (NCI-H460 lung): 2.44 µM
TGI (NCI-H460 lung): 6.09 µM
GI50 (SW-620 colon): 3.19 µM
TGI (SW-620 colon): 13.1 µM
GI50 (786-0 renal): 2.08 µM
TGI (786-0 renal): 4.82 µM
GI50 (LOX IMVI melanoma): 1.7 µM
TGI (LOX IMVI melanoma): 3.33 µM
